This note sets out measurements from patent publication US12103926B2, “Compounds for treating huntington's disease” (PTC THERAPEUTICS, INC., priority 2018, dated 2024).

The structures appear in SMILES notation.

In this test the test system is Endogenous Huntingtin Protein. In words: Endogenous Huntingtin Protein Assay (ELISA-based MSD electrochemiluminescence assay). It is filed as cell-based. Conditions: MW1 (expanded polyglutamine) or MAB2166 capture antibody; lysates. Here is the method:
Compounds of Formula (I) were tested using the Meso Scale Discovery (MSD) Assay provided in International Application No. PCT/US2016/066042, filed on Dec. 11, 2016 and claiming priority to United States Provisional Application U.S. 62/265,652 filed on Dec. 10, 2015, the entire contents of which are incorporated herein by reference.
The Endogenous Huntingtin Protein assay used in Example 1 was developed using the ELISA-based MSD electrochemiluminescence assay platform.
Endogenous Huntingtin Protein Assay
Meso Scale Discovery (MSD) 96-well or 384-well plates were coated overnight at 4° C. with MW1 (expanded polyglutamine) or MAB2166 monoclonal antibody (for capture) at a concentration of 1 μg/mL in PBS (30 μL per well). Plates were then washed three times with 300 μL wash buffer (0.05% Tween-20 in PBS) and blocked (100 μL blocking buffer; 5% BSA in PBS) for 4-5 hours at room temperature with rotational shaking and then washed three times with wash buffer.
Samples (25 μL) were transferred to the antibody-coated MSD plate and incubated overnight at 4° C. After removal of the lysates, the plate was washed three times with wash buffer, and 25 μL of #5656S (Cell signaling; rabbit monoclonal) secondary antibody (diluted to 0.25 μg/mL in 0.05% Tween-20 in blocking buffer) was added to each well and incubated with shaking for 1 Hour at room temperature. Following incubation with the secondary antibody, the wells were rinsed with wash buffer after which 25 μL of goat anti-rabbit SULFO TAG secondary detection antibody (required aspect of the MSD system) (diluted to 0.25 μg/mL in 0.05% Tween-20 in blocking buffer) was added to each well and incubated with shaking for 1 hour at room temperature. After rinsing three times with wash buffer, 150 μL of read buffer T with surfactant (MSD) were added to each empty well, and the plate was imaged on a SI 6000 imager (MSD) according to manufacturers' instructions provided for 96- or 384-well plates.
`CN(c1cnc(-c2ccc(-c3ccnc(O)c3)cc2O)cn1)C1CC(C)(C)NC(C)(C)C1` [Cpd 1, 4-(3-hydroxy-4-{5-[methyl(2,2,6,6-tetramethylpiperidin-4-yl)amino]pyrazin-2-yl}phenyl)pyridin-2-ol] came in with an IC50 below 100 nM.
`CC1(C)CC(Oc2cnc(-c3ccc(-c4cn[nH]c4)cc3O)cn2)CC(C)(C)N1` [Cpd 2, 5-(1H-pyrazol-4-yl)-2-{5-[(2,2,6,6-tetramethylpiperidin-4-yl)oxy]pyrazin-2-yl}phenol] showed an IC50 of 500 to 1000 nM.
In turn, `CN(c1cnc(-c2ccc(-c3cn[nH]c3)cc2O)cn1)C1CC2(CCCCC2)NC2(CCCCC2)C1` (centres unmarked) [Cpd 3, 2-{5-[(7-azadispiro[5.1.5^8.3^6]hexadecan-15-yl)(methyl)amino]pyrazin-2-yl}-5-(1H-pyrazol-4-yl)phenol] had an IC50 of 1000 to 3000 nM.
Molecule `CN(c1cnc(-c2cc(Cl)c(-c3cn[nH]c3)cc2Cl)cn1)C1CC(C)(C)NC(C)(C)C1` [Cpd 4, 5-[2,5-dichloro-4-(1H-pyrazol-4-yl)phenyl]-N-methyl-N-(2,2,6,6-tetramethylpiperidin-4-yl)pyrazin-2-amine] yielded an IC50 of 1000 to 3000 nM.
Molecule `CN(c1cnc(-c2ccc(-n3ccnc3)cc2O)cn1)C1CC(C)(C)NC(C)(C)C1` [Cpd 5, 5-(1H-imidazol-1-yl)-2-{5-[methyl(2,2,6,6-tetramethylpiperidin-4-yl)amino]pyrazin-2-yl}phenol] returned a 50% inhibitory concentration (IC50) of 500 to 1000 nM.
The value for `Oc1cc(-c2cn[nH]c2)ccc1-c1cnc(N2CC3CNCC3C2)cn1` (centres unmarked) [Cpd 6, 2-[5-(hexahydropyrrolo[3,4-c]pyrrol-2(1H)-yl)pyrazin-2-yl]-5-(1H-pyrazol-4-yl)phenol] was 1000 to 3000 nM; that for `Oc1cc(-c2cn[nH]c2)ccc1-c1cnc(OC2CCNCC2)cn1` [Cpd 7, 2-{5-[(piperidin-4-yl)oxy]pyrazin-2-yl}-5-(1H-pyrazol-4-yl)phenol] was 1000 to 3000 nM.
`Oc1cc(-c2cn[nH]c2)ccc1-c1cnc(NC2CCNCC2)cn1` [Cpd 8, 2-{5-[(piperidin-4-yl)amino]pyrazin-2-yl}-5-(1H-pyrazol-4-yl)phenol] displayed an IC50 of 1000 to 3000 nM.
Consider `CN(c1cnc(-c2ccc(-c3cn[nH]c3C(F)(F)F)cc2O)cn1)C1CC(C)(C)NC(C)(C)C1` [Cpd 9, 2-{5-[methyl(2,2,6,6-tetramethylpiperidin-4-yl)amino]pyrazin-2-yl}-5-[5-(trifluoromethyl)-1H-pyrazol-4-yl]phenol], for which the IC50 was in the range of 1000 to 3000 nM.
`CC1(C)CC(Oc2cnc(-c3ccc(-c4cn[nH]c4)c(F)c3F)cn2)CC(C)(C)N1` [Cpd 10, 2-[2,3-difluoro-4-(1H-pyrazol-4-yl)phenyl]-5-[(2,2,6,6-tetramethylpiperidin-4-yl)oxy]pyrazine] displayed an IC50 of 1000 to 3000 nM.
Consider `Cc1cc(-c2cnc(N(C)C3CC(C)(C)NC(C)(C)C3)cn2)c(F)cc1-c1cn[nH]c1` [Cpd 11, 5-[2-fluoro-5-methyl-4-(1H-pyrazol-4-yl)phenyl]-N-methyl-N-(2,2,6,6-tetramethylpiperidin-4-yl)pyrazin-2-amine], for which the 50% inhibitory concentration (IC50) lay in the range of 100 to 500 nM.
Turning to `Cc1[nH]ncc1-c1ccc(-c2cnc(N(C)C3CC(C)(C)NC(C)(C)C3)cn2)c(O)c1` [Cpd 12, 5-(5-methyl-1H-pyrazol-4-yl)-2-{5-[methyl(2,2,6,6-tetramethylpiperidin-4-yl)amino]pyrazin-2-yl}phenol], the IC50 lay within 500 to 1000 nM.
As for `CN(c1cnc(-c2ccc(-c3cn[nH]c3)c(F)c2F)cn1)C1CC(C)(C)NC(C)(C)C1` [Cpd 13, 5-[2,3-difluoro-4-(1H-pyrazol-4-yl)phenyl]-N-methyl-N-(2,2,6,6-tetramethylpiperidin-4-yl)pyrazin-2-amine], the IC50 is below 100 nM.
`CN(c1cnc(-c2ccc(-n3ccc(N)n3)cc2O)cn1)C1CC(C)(C)NC(C)(C)C1` [Cpd 14, 5-(3-amino-1H-pyrazol-1-yl)-2-{5-[methyl(2,2,6,6-tetramethylpiperidin-4-yl)amino]pyrazin-2-yl}phenol] gave a concentration for half-maximal inhibition (IC50) of 1000 to 3000 nM.
`CN(c1cnc(-c2cc(F)c(-c3cn[nH]c3)cc2F)cn1)C1CC(C)(C)NC(C)(C)C1` [Cpd 15, 5-[2,5-difluoro-4-(1H-pyrazol-4-yl)phenyl]-N-methyl-N-(2,2,6,6-tetramethylpiperidin-4-yl)pyrazin-2-amine] came in with a concentration for half-maximal inhibition (IC50) below 100 nM.
The molecule `CN(c1cnc(-c2ccc(-c3cn[nH]c3)c(F)c2)cn1)C1CC(C)(C)NC(C)(C)C1` [Cpd 16, 5-[3-fluoro-4-(1H-pyrazol-4-yl)phenyl]-N-methyl-N-(2,2,6,6-tetramethylpiperidin-4-yl)pyrazin-2-amine] yielded an IC50 of 500 to 1000 nM.
For the molecule `CN(c1cnc(-c2cc(F)c(-c3cn[nH]c3)c(F)c2)cn1)C1CC(C)(C)NC(C)(C)C1` [Cpd 17, 5-[3,5-difluoro-4-(1H-pyrazol-4-yl)phenyl]-N-methyl-N-(2,2,6,6-tetramethylpiperidin-4-yl)pyrazin-2-amine], the IC50 is 100 to 500 nM.
Consider `CN(c1cnc(-c2ccc(-c3ccn(C)c(=O)c3)cc2O)cn1)C1CC(C)(C)NC(C)(C)C1` [Cpd 18, 4-(3-hydroxy-4-{5-[methyl(2,2,6,6-tetramethylpiperidin-4-yl)amino]pyrazin-2-yl}phenyl)-1-methylpyridin-2(1H)-one], for which the IC50 fell in the range of 1000 to 3000 nM.
In turn, `CN(c1cnc(-c2ccc(-n3cccn3)cc2O)cn1)C1CC(C)(C)NC(C)(C)C1` [Cpd 19, 2-{5-[methyl(2,2,6,6-tetramethylpiperidin-4-yl)amino]pyrazin-2-yl}-5-(1H-pyrazol-1-yl)phenol] yielded a 50% inhibitory concentration (IC50) of 1000 to 3000 nM.
The value for `CN(c1cnc(-c2ccc(-c3cn[nH]c3)cc2O)cn1)C1CCNCC1` [Cpd 20, 2-{5-[methyl(piperidin-4-yl)amino]pyrazin-2-yl}-5-(1H-pyrazol-4-yl)phenol] was 500 to 1000 nM; that for `Oc1cc(-c2cn[nH]c2)ccc1-c1cnc(N2CC3(CCNC3)C2)cn1` [Cpd 21, 2-[5-(2,6-diazaspiro[3.4]octan-2-yl)pyrazin-2-yl]-5-(1H-pyrazol-4-yl)phenol] was 1000 to 3000 nM; that for `CN(c1cnc(-c2cc(F)c(-c3cn[nH]c3)cc2O)cn1)C1CC(C)(C)NC(C)(C)C1` [Cpd 22, 4-fluoro-2-{5-[methyl(2,2,6,6-tetramethylpiperidin-4-yl)amino]pyrazin-2-yl}-5-(1H-pyrazol-4-yl)phenol] was below 100 nM.
In the case of `CN(c1cnc(-c2cc(Cl)c(-c3cn[nH]c3)cc2F)cn1)C1CC(C)(C)NC(C)(C)C1` [Cpd 23, 5-[5-chloro-2-fluoro-4-(1H-pyrazol-4-yl)phenyl]-N-methyl-N-(2,2,6,6-tetramethylpiperidin-4-yl)pyrazin-2-amine], the IC50 lay in the range of 100 to 500 nM.
`CN(c1cnc(-c2cc(C#N)c(-c3cn[nH]c3)cc2F)cn1)C1CC(C)(C)NC(C)(C)C1` [Cpd 24, 4-fluoro-5-{5-[methyl(2,2,6,6-tetramethylpiperidin-4-yl)amino]pyrazin-2-yl}-2-(1H-pyrazol-4-yl)benzonitrile] yielded an IC50 below 100 nM.
As to `Oc1cc(-c2cn[nH]c2)ccc1-c1cnc(OC2CC3CCC(C2)N3)cn1` (centres unmarked) [Cpd 25, 2-[5-(8-azabicyclo[3.2.1]oct-3-yloxy)pyrazin-2-yl]-5-(1H-pyrazol-4-yl)phenol], the half-maximal inhibitory concentration (IC50) was 3000 to 9000 nM.
The molecule `CN(c1cnc(-c2ccc(-c3cn[nH]c3)cc2O)cn1)C1CC(C)(C)NC(C)(C)C1` [Cpd 26, 2-{5-[methyl(2,2,6,6-tetramethylpiperidin-4-yl)amino]pyrazin-2-yl}-5-(1H-pyrazol-4-yl)phenol] had an IC50 below 100 nM.
